In one assay the target is Cbl-b (Homo sapiens (Human), UniProt Q13191). The experiment in a line: Cbl-b LCK Ub TR-FRET assay (Cbl-b Lck HTRF). The format is biochemical. In short, it runs like this:
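TR-FRET (340 nm excitation, 615/665 nm emission) read after adding HA-ubiquitin–UBE2D2 thioester, anti-HA-D2 and streptavidin-Eu. Beforehand, compounds incubated 60 min with biotinylated Cbl-b, then 90 min with His-LCK and ATP (1 mM in 2× mix); IC50 from 10 concentrations, DMSO high and no-LCK low controls.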
A general note: Time-resolved FRET reads energy transfer from a long-lived donor to a nearby acceptor.

The target of the next assay is c-Cbl (Homo sapiens (Human), UniProt P22681). The experiment in a line: C-Cbl LCK Ub TR-FRET assay (c-cbl Lck HTRF). Type of assay: biochemical. The following applies: for (fold-selectivity): C-cbl Lck HTRF IC50 relative to Cbl-b Lck HTRF IC50. In short, it runs like this:
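Detection reagents added, brief spin, 20 min RT. IC50 fit normalized to no-LCK (low) and DMSO (high) controls.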

Where a name gives a salt, the structure may show the parent alone.

The results in this text go back to patent US20250230147A1, “LACTAMS AS CBL-B INHIBITORS” (Genentech, Inc., priority 2021, published 2025).

The term IC50 denotes the concentration needed to halve the response being measured.

Chain of Cbl-b (Q13191 40-426): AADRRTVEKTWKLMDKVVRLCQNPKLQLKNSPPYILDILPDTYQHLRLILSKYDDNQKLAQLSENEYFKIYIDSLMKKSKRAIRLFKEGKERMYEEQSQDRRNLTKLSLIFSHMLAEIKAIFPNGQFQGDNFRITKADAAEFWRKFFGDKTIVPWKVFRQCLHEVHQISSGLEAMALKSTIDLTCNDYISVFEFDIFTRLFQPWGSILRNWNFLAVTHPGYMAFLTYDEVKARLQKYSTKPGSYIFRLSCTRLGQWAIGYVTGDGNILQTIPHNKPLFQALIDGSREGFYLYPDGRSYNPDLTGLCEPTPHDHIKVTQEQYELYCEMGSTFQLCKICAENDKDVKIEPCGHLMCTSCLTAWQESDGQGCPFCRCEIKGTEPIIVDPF
Chain of c-Cbl (P22681 47-435): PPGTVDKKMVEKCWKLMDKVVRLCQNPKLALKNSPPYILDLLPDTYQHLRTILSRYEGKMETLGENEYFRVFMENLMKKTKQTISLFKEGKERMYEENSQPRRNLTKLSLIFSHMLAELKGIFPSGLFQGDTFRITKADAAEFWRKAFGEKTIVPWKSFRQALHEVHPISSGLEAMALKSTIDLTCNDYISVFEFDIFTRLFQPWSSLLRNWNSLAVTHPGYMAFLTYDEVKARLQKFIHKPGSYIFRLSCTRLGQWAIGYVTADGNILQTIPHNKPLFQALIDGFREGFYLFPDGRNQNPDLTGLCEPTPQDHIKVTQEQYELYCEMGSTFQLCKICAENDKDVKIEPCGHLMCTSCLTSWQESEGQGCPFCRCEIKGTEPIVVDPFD

As for `Cn1cnnc1[C@H](F)C1(c2cccc(N3Cc4c(cc(CN5CC6CC6C5)cc4C(F)(F)F)C3=O)c2)COC1` (stereo partly drawn) [Compound 84, 6-((3-azabicyclo[3.1.0]hexan-3-yl)methyl)-2-(3-(3-((R)-fluoro(4-methyl-4H-1,2,4-triazol-3-yl)methyl)oxetan-3-yl)phenyl)-4-(trifluoromethyl)isoindolin-1-one], half-maximal inhibition against Cbl-b (IC50) required 62 nM. Besides, on c-Cbl, the IC50 was 120 nM and the “(fold-selectivity)” value stood at 1.9x.

As for `Cn1cnnc1CC1(c2cccc(N3Cc4c(cc(CN5CC(C)(F)C5)cc4C(F)(F)F)C3=O)c2)CC(F)(F)C1` [Compound 107, 2-(3-(3,3-difluoro-1-((4-methyl-4H-1,2,4-triazol-3-yl)methyl)cyclobutyl)phenyl)-6-((3-fluoro-3-methylazetidin-1-yl)methyl)-4-(trifluoromethyl)isoindolin-1-one], at Cbl-b, half-maximal inhibition (IC50) required 18 nM. At c-Cbl, the IC50 came out at 19 nM and the “(fold-selectivity)” value came to 1.0x.

On to `COC1(C)CN(Cc2cc3c(c(C(F)(F)F)c2)CN(c2cccc(C4([C@@H](F)c5nncn5C)COC4)c2)C3=O)C1` [Compound 179, (R)-2-(3-(3-(fluoro(4-methyl-4H-1,2,4-triazol-3-yl)methyl)oxetan-3-yl)phenyl)-6-((3-methoxy-3-methylazetidin-1-yl)methyl)-4-(trifluoromethyl)isoindolin-1-one], for which the IC50 at Cbl-b was determined as 54 nM. In addition, at c-Cbl, the IC50 came to 110 nM and the “(fold-selectivity)” value is reported as 2.1x.

As to `Cn1cnnc1CC1(c2cc(NC3CCCC3)cc(N3Cc4c(cc(CNC5(C)CCC5)cc4C(F)(F)F)C3=O)c2)CC(F)(F)C1` [Compound 477, 2-(3-(cyclopentylamino)-5-(3,3-difluoro-1-((4-methyl-4H-1,2,4-triazol-3-yl)methyl)cyclobutyl)phenyl)-6-(((1-methylcyclobutyl)amino)methyl)-4-(trifluoromethyl)isoindolin-1-one], the results for the IC50 against Cbl-b and on c-Cbl were 36 nM and 110 nM, respectively. Besides, the “(fold-selectivity)” value on c-Cbl was “(3.4x)”.

At Cbl-b, `Cn1cnnc1[C@H](F)C1(c2cccc(N3Cc4c(cc(CN5CC(O)(C6CC6)C5)cc4C(F)(F)F)C3=O)c2)COC1` [Compound 173, (R)-6-((3-cyclopropyl-3-hydroxyazetidin-1-yl)methyl)-2-(3-(3-(fluoro(4-methyl-4H-1,2,4-triazol-3-yl)methyl)oxetan-3-yl)phenyl)-4-(trifluoromethyl)isoindolin-1-one] showed an IC50 of 63 nM. Further, on c-Cbl, the IC50 is 83 nM and the “(fold-selectivity)” value is reported as 1.3x.

As to `Cn1cnnc1CC1(c2cc(NC3CCCC3)cc(N3Cc4c(cc(CNC5(C)CCC5)cc4C(F)(F)F)C3=O)c2)COC1` [Compound 480, 2-(3-(cyclopentylamino)-5-(3-((4-methyl-4H-1,2,4-triazol-3-yl)methyl)oxetan-3-yl)phenyl)-6-(((1-methylcyclobutyl)amino)methyl)-4-(trifluoromethyl)isoindolin-1-one], at Cbl-b, the IC50 was 59 nM. Besides, at c-Cbl, it took 180 nM to reach half-maximal inhibition (IC50) and the “(fold-selectivity)” value is listed as “(2.8x)”.

Consider `Cn1cnnc1[C@H](F)C1(c2cccc(N3Cc4c(cc(CNCCCF)cc4C(F)(F)F)C3=O)c2)COC1` [Compound 231, (R)-2-(3-(3-(fluoro(4-methyl-4H-1,2,4-triazol-3-yl)methyl)oxetan-3-yl)phenyl)-6-(((3-fluoropropyl)amino)methyl)-4-(trifluoromethyl)isoindolin-1-one], for which the figures for the IC50 at Cbl-b and on c-Cbl were 9.8 nM and 81 nM, respectively. Besides, the “(fold-selectivity)” value on c-Cbl is given as “(0.82x)”.

In the case of `Cn1cnnc1CC1(c2cccc(N3Cc4c(cc(CNC5(C)CCC5(C)C)cc4C(F)(F)F)C3=O)c2)CC(F)(F)C1` (stereo not drawn) [Compound 355, 2-(3-(3,3-difluoro-1-((4-methyl-4H-1,2,4-triazol-3-yl)methyl)cyclobutyl)phenyl)-4-(trifluoromethyl)-6-(((1,2,2-trimethylcyclobutyl)amino)methyl) isoindin-1-one formate], the half-inhibitory concentration (IC50) amounted to 14 nM on Cbl-b and 9.1 nM against c-Cbl.

With `Cn1cnnc1[C@H](F)C1(c2cccc(N3Cc4c(cc(CN5CC(C(F)F)C5)cc4C(F)(F)F)C3=O)c2)COC1` [Compound 137, (R)-6-((3-(difluoromethyl)azetidin-1-yl)methyl)-2-(3-(3-(fluoro(4-methyl-4H-1,2,4-triazol-3-yl)methyl)oxetan-3-yl)phenyl)-4-(trifluoromethyl)isoindolin-1-one], the concentration for half-maximal inhibition (IC50) against Cbl-b turned out to be 29 nM. In addition, on c-Cbl, the half-inhibitory concentration (IC50) is 57 nM and the “(fold-selectivity)” value was 1.9x.

In turn, `Cn1cnnc1CC1(c2cc(NCC3CCOCC3)nc(N3Cc4c(cc(CNC5(C)CCC5)cc4C(F)(F)F)C3=O)c2)CCC1` [Compound 335, 2-(4-(1-((4-methyl-4H-1,2,4-triazol-3-yl)methyl)cyclobutyl)-6-(((tetrahydro-2H-pyran-4-yl)methyl)amino)pyridin-2-yl)-6-(((1-methylcyclobutyl)amino)methyl)-4-(trifluoromethyl)isoindolin-1-one] returned an IC50 against Cbl-b of 180 nM. For the same molecule, at c-Cbl, half-maximal inhibition (IC50) required 190 nM and the “(fold-selectivity)” value is reported as “(1.0x)”.

Consider `CCOc1cc(C2(Cc3nncn3C)COC2)cc(N2Cc3c(cc(CN4CCC(F)(F)[C@H](C)C4)cc3C(F)(F)F)C2=O)n1` [Compound 375, (R)-6-((4,4-difluoro-3-methylpiperidin-1-yl)methyl)-2-(6-ethoxy-4-(3-((4-methyl-4H-1,2,4-triazol-3-yl)methyl)oxetan-3-yl)pyridin-2-yl)-4-(trifluoromethyl)isoindolin-1-one], for which, at Cbl-b, 22 nM corresponded to half-maximal inhibition (IC50). Further, at c-Cbl, the IC50 worked out at 14 nM and the “(fold-selectivity)” value is listed as “(0.65x)”.

With `CC(C)[C@H]1CN(C)CCN1Cc1cc2c(c(C(F)(F)F)c1)CN(c1cccc(C3([C@H](F)c4nncn4C(F)F)COC3)c1)C2=O` [Compound 268, 2-(3-(3-((S)-(4-(difluoromethyl)-4H-1,2,4-triazol-3-yl)fluoromethyl)oxetan-3-yl)phenyl)-6-(((S)-2-isopropyl-4-methylpiperazin-1-yl)methyl)-4-(trifluoromethyl)isoindolin-1-one], the IC50 on Cbl-b amounted to 16 nM. Moreover, on c-Cbl, the IC50 came to 11 nM and the “(fold-selectivity)” value is on record as “(0.68x)”.

`Cc1ncnn1CC1(c2cccc(N3Cc4c(cc(CN5CCN(C)C[C@@H]5C(C)C)cc4C(F)(F)F)C3=O)c2)COC1` [Compound 254, (S)-6-((2-isopropyl-4-methylpiperazin-1-yl)methyl)-2-(3-(3-((5-methyl-1H-1,2,4-triazol-1-yl)methyl)oxetan-3-yl)phenyl)-4-(trifluoromethyl)isoindolin-1-one] returned an IC50 against Cbl-b of 2400 nM. Moreover, at c-Cbl, half-maximal inhibition (IC50) was put at 3200 nM and the “(fold-selectivity)” value is recorded as “(1.4x)”.

Regarding `CCCNCc1cc2c(c(C(F)(F)F)c1)CN(c1cccc(C3([C@@H](F)c4nncn4C)CC(F)(F)C3)c1)C2=O` [Compound 445, (R)-2-(3-(3,3-difluoro-1-(fluoro(4-methyl-4H-1,2,4-triazol-3-yl)methyl)cyclobutyl)phenyl)-6-((propylamino)methyl)-4-(trifluoromethyl)isoindolin-1-one], on Cbl-b, the IC50 turned out to be 26 nM. On c-Cbl, the IC50 stood at 33 nM and the “(fold-selectivity)” value is reported as “(1.3x)”.

For the molecule `CC(C)[C@H]1CN(C)CCN1Cc1cc2c(c(C(F)(F)F)c1)CN(c1cc(C3(Cc4nncn4C)COC3)cc(NC3CCCC3)n1)C2=O` [Compound 297, (S)-2-(6-(cyclopentylamino)-4-(3-((4-methyl-4H-1,2,4-triazol-3-yl)methyl)oxetan-3-yl)pyridin-2-yl)-6-((2-isopropyl-4-methylpiperazin-1-yl)methyl)-4-(trifluoromethyl)isoindolin-1-one formate], the figures for the IC50 against Cbl-b and against c-Cbl were 9.1 nM and 8 nM, respectively.

Turning to `CC[C@H]1CN(Cc2cc3c(c(C(F)(F)F)c2)CN(c2cccc(C4(Cc5nncn5C)CC(F)(F)C4)c2)C3=O)CCN1C` [Compound 421, (S)-2-(3-(3,3-difluoro-1-((4-methyl-4H-1,2,4-triazol-3-yl)methyl)cyclobutyl)phenyl)-6-((3-ethyl-4-methylpiperazin-1-yl)methyl)-4-(trifluoromethyl)isoindolin-1-one], on Cbl-b, the IC50 amounted to 15 nM. At c-Cbl, half-maximal inhibition (IC50) required 11 nM and the “(fold-selectivity)” value was “(0.72x)”.

With `Cn1cnnc1CC1(c2cc(N[C@H]3CC[C@@H](N)CC3)nc(N3Cc4c(cc(CNC5(C)CCC5)cc4C(F)(F)F)C3=O)c2)CCC1` [Compound 306, 2-(6-(((1s,4s)-4-aminocyclohexyl)amino)-4-(1-((4-methyl-4H-1,2,4-triazol-3-yl)methyl)cyclobutyl)pyridin-2-yl)-6-(((1-methylcyclobutyl)amino)methyl)-4-(trifluoromethyl)isoindolin-1-one], on Cbl-b, the IC50 turned out to be 76 nM. In addition, on c-Cbl, 89 nM corresponded to half-maximal inhibition (IC50) and the “(fold-selectivity)” value was “(1.2x)”.

As for `Cn1cnnc1[C@H](F)C1(c2cccc(N3Cc4c(cc(CNC5(C)CCC5)cc4C(F)F)C3=O)c2)COC1` [Compound 249, (R)-4-(difluoromethyl)-2-(3-(3-(fluoro(4-methyl-4H-1,2,4-triazol-3-yl)methyl)oxetan-3-yl)phenyl)-6-(((1-methylcyclobutyl)amino)methyl)isoindolin-1-one formate], the IC50 was found to be 12 nM against Cbl-b and 20 nM on c-Cbl.

`Cn1cnnc1CC1(c2cccc(N3Cc4c(cc(CNC(C)(C)CF)cc4C(F)(F)F)C3=O)c2)CC(F)(F)C1` [Compound 372, 2-(3-(3,3-difluoro-1-((4-methyl-4H-1,2,4-triazol-3-yl)methyl)cyclobutyl)phenyl)-6-(((1-fluoro-2-methylpropan-2-yl)amino)methyl)-4-(trifluoromethyl)isoindolin-1-one]: the IC50 on Cbl-b is 28 nM; on c-Cbl it was 34 nM. At c-Cbl, the “(fold-selectivity)” value is recorded as “(1.2x)”.
